These results are taken from patent publication US20230011869A1 (Hoffmann-La Roche Inc., priority 2018, published 2023).

SMILES strings stand for the structures. Structures can show the parent of a compound that is named as a salt. Where two headings read alike, the source gives them in different places.

This assay has as its system Acinetobacter baumannii ATCC17961. Nature of the assay: Antimicrobial susceptibility testing: 90% growth inhibitory concentration (IC90) determination, Iso-Sensitest broth. The format is cell-based. The following applies: read-out: ATCC17961 IC90. The gist of the method:
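Growth followed by optical density at 600 nm every 20 minutes for 16 h at 35±2° C, with inhibition assessed in log phase to give IC90. Compounds tested as twofold dilution series (e.g. 50 to 0.097 μM final) against 5×10^(5) CFU/ml in Iso-Sensitest medium.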

[1] abbreviates: Acinetobacter baumannii, ATCC17961, 16 h.
[2] abbreviates: Acinetobacter baumannii, ATCC17961, 16 h, 90% growth inhibitory concentration, Acinetobacter baumannii ATCC17961, Iso-Sensitest broth, OD 600 nm over 16 h.

One may read the IC90 as the point of the concentration-response curve where the effect stands at 90%.

Consider `COc1ccc(-c2cnc3c(Nc4ccc(C(=O)N5CCN(C(=O)[C@@H]6C[C@](C)(O)CN6)CC5)c(C)c4)nccn23)cc1F` [Example 461, [4-[[3-(3-fluoro-4-methoxyphenyl)imidazo[1,2-a]pyrazin-8-yl]amino]-2-methylphenyl]-[4-[(2S,4S)-4-hydroxy-4-methylpyrrolidine-2-carbonyl]piperazin-1-yl]methanone; formic acid], for which, under setting [1], the IC90 was 148 nM.
For the compound `COc1ccc(-c2cnc3c(Nc4ccc(C(=O)N5CCN(C(=O)[C@@H]6CC(C)(C)CN6)CC5)c(C)c4)nccn23)c(F)c1F` [Example 76, (S)-(4-(4-((3-(2,3-difluoro-4-methoxyphenyl)imidazo[1,2-a]pyrazin-8-yl)amino)-2-methylbenzoyl)piperazin-1-yl)(4,4-dimethylpyrrolidin-2-yl)methanone hydrochloride], under setting [2], the IC90 was found to be 91 nM.
Still for that read-out and setting: to `COc1ccc(-c2cnc3c(Nc4ccc(C(=O)N5CCN(C(=O)NCCN)CC5)c(C)c4)nccn23)c(Cl)c1F` [Example 153, N-(2-aminoethyl)-4-[4-[[3-(2-chloro-3-fluoro-4-methoxy-phenyl)imidazo[1,2-a]pyrazin-8-yl]amino]-2-methyl-benzoyl]piperazine-1-carboxamide formate] belongs 50 nM.
On the same count and under the same terms, the same measure for `Cc1cc(Nc2nccn3c(-c4ccc(OCC#N)c(F)c4Cl)cnc23)ccc1C(=O)N1CCN(C(=O)NCCN)CC1` [Example 159, N-(2-aminoethyl)-4-[4-[[3-[2-chloro-4-(cyanomethoxy)-3-fluoro-phenyl]imidazo[1,2-a]pyrazin-8-yl]amino]-2-methyl-benzoyl]piperazine-1-carboxamide formate]: 35 nM.
Turning to `COc1ccc(-c2cnc3c(Nc4ccc(C(=O)N5CCN(C(=O)[C@]6(O)CNCC[C@H]6O)CC5)c(C)c4)nccn23)c(F)c1F` [Example 288, [4-[[3-(2,3-difluoro-4-methoxyphenyl)imidazo[1,2-a]pyrazin-8-yl]amino]-2-methylphenyl]-[4-[(3S,4R)-3,4-dihydroxypiperidine-3-carbonyl]piperazin-1-yl]methanone; hydrochloride], the IC90 under setting [1] came out at 88 nM.
As to `Cc1cc(Nc2nccn3c(-c4ccc(OCC#N)c(F)c4Cl)cnc23)ccc1C(=O)N1CCN(C(=O)[C@@H]2C[C@@H](O)CN2)CC1` [Example 251, 2-[3-chloro-2-fluoro-4-[8-[4-[4-[(2S,4R)-4-hydroxypyrrolidine-2-carbonyl]piperazine-1-carbonyl]-3-methylanilino]imidazo[1,2-a]pyrazin-3-yl]phenoxy]acetonitrile], the IC90 (90% growth inhibitory concentration, Acinetobacter baumannii ATCC17961, Iso-Sensitest broth, OD 600 nm over 16 h) is 80 nM.
Consider `COc1ccc(-c2cnc3c(Nc4cc(F)c(C(=O)N5CCN(C(=O)[C@@H]6C[C@@H](O)CN6)CC5)cc4F)nccn23)c(F)c1F` [Example 244, (4-(4-((3-(2,3-difluoro-4-methoxyphenyl)imidazo[1,2-a]pyrazin-8-yl)amino)-2,5-difluorobenzoyl)piperazin-1-yl)((2S,4R)-4-hydroxypyrrolidin-2-yl)methanone], for which the concentration for an effect of 90% (IC90) under setting [2] is 2730 nM.
For `Cc1cc(Nc2nccn3c(-c4ccc(OC(F)F)cc4)cnc23)ccc1C(=O)N1CCN(C(=O)OC(C)(C)C)CC1` [Example 556, tert-butyl 4-(4-((3-(4-(difluoromethoxy)phenyl)imidazo [1,2-a]pyrazin-8-yl)amino)-2-methylbenzoyl)piperazine-1-carboxylate], the IC90 under setting [2] came to 418 nM.
Still for that read-out and setting: the same measure for `Cc1cc(Nc2nccn3c(-c4ccc(OCC#N)c(F)c4F)cnc23)ccc1C(=O)N1CCC(C(=O)N2CC3(CNC3)C2)CC1` [Example 87, 2-(4-(8-((4-(4-(2,6-diazaspiro[3.3]heptane-2-carbonyl)piperidine-1-carbonyl)-3-methylphenyl)amino)imidazo[1,2-a]pyrazin-3-yl)-2,3-difluorophenoxy)acetonitrile]: 166 nM; for `Cc1cc(Nc2nccn3c(-c4ccc(OCC#N)c(F)c4Cl)cnc23)ccc1C(=O)N1CCN(C(=O)[C@@H]2CCNC[C@H]2O)CC1` [Example 221, 2-[3-chloro-2-fluoro-4-[8-[4-[4-[(3S,4R)-3-hydroxypiperidine-4-carbonyl]piperazine-1-carbonyl]-3-methyl-anilino]imidazo[1,2-a]pyrazin-3-yl]phenoxy] acetonitrile formate]: 59 nM.
As to `COc1ccc(-c2cnc3c(Nc4ccc(C(=O)N5CCC(C(=O)NCC(O)CN6CCOCC6)CC5)c(C)c4)nccn23)c(F)c1F` (centres unmarked) [Example 572, 1-(4-((3-(2,3-difluoro-4-methoxyphenyl)imidazo[1,2-a]pyrazin-8-yl)amino)-2-methylbenzoyl)-N-(2-hydroxy-3-morpholinopropyl)piperidine-4-carboxamide], under setting [2], the IC90 came out at 216 nM.
The same measure, in the same setting: the same measure for `Cc1cc(Nc2nccn3c(-c4ccc(OCC#N)c(F)c4Cl)cnc23)ccc1C(=O)N1CCN(C(=O)C2CCNCC2)CC1` [Example 209, 2-[3-chloro-2-fluoro-4-[8-[3-methyl-4-[4-(piperidine-4-carbonyl)piperazine-1-carbonyl]anilino]imidazo[1,2-a]pyrazin-3-yl]phenoxy] acetonitrile formate]: 68 nM; for `COc1ccc(-c2cnc3c(Nc4ccc(C(=O)N5CCN(C(=O)[C@@]6(O)CNCC[C@@H]6O)CC5)c(C)c4)nccn23)c(F)c1F` [Example 287, [4-[[3-(2,3-difluoro-4-methoxyphenyl)imidazo[1,2-a]pyrazin-8-yl]amino]-2-methylphenyl]-[4-[(3R,4S)-3,4-dihydroxypiperidine-3-carbonyl]piperazin-1-yl]methanone]: 80 nM; for `C#CCOc1ccc(-c2cnc3c(Nc4ccc(C(=O)N5CCN(C(=O)[C@@H]6C[C@@H](O)CN6)CC5)c(C)c4)nccn23)c(F)c1F` [Example 248, [4-[[3-(2,3-difluoro-4-prop-2-ynoxy-phenyl)imidazo[1,2-a]pyrazin-8-yl]amino]-2-methyl-phenyl]-[4-[(2S,4R)-4-hydroxypyrrolidine-2-carbonyl]piperazin-1-yl]methanone]: 74 nM.
On the same count and under the same terms, to `COc1ccc(-c2cnc3c(Nc4ccc(C(=O)N5CCC(CN)CC5)c(C)c4)nccn23)cc1` [Example 19, (4-(aminomethyl)piperidin-1-yl)(4-((3-(4-methoxyphenyl)imidazo[1,2-a]pyrazin-8-yl)amino)-2-methylphenyl)methanone hydrochloride] belongs 82 nM; to `COc1ccc(-c2cnc3c(Nc4ccc(C(=O)N5CCN(C(=O)[C@@H]6C[C@H](O)CN6)CC5)c(C)c4)nccn23)c(F)c1F` [Example 227, [4-[[3-(2,3-difluoro-4-methoxy-phenyl)imidazo[1,2-a]pyrazin-8-yl]amino]-2-methyl-phenyl]-[4-[(2S,4S)-4-hydroxypyrrolidine-2-carbonyl]piperazin-1-yl]methanone], 58 nM.
Same read-out and setting: to `COc1ccc(-c2cnc3c(Nc4ccc(C(=O)N5CCN(C(=O)[C@@H]6C[C@@H](O)CN6)CC5)c(C)c4)nccn23)cc1Cl` [Example 92, (4-(4-((3-(3-chloro-4-methoxyphenyl)imidazo[1,2-a]pyrazin-8-yl)amino)-2-methylbenzoyl)piperazin-1-yl)((2S,4R)-4-hydroxypyrrolidin-2-yl)methanone hydrochloride] belongs 98 nM; to `COc1ccc(-c2cnc3c(Nc4ccc(C(=O)N5CCN(C(=O)[C@]6(O)CNCC[C@H]6O)CC5)c(C)c4)nccn23)c(F)c1F` (relative stereo) [Example 236, rel-(4-(4-((3-(2,3-difluoro-4-methoxyphenyl)imidazo[1,2-a]pyrazin-8-yl)amino)-2-methylbenzoyl)piperazin-1-yl)((3R,4S)-3,4-dihydroxypiperidin-3-yl)methanone], 82 nM.
For `COc1ccc(-c2cnc3c(Nc4ccc(C(=O)N5CCN(C(=O)[C@@]6(O)CNCC[C@@H]6O)CC5)c(C)c4)nccn23)c(F)c1F` [Example 290, [4-[[3-(2,3-difluoro-4-methoxyphenyl)imidazo[1,2-a]pyrazin-8-yl]amino]-2-methylphenyl]-[4-[(3R,4S)-3,4-dihydroxypiperidine-3-carbonyl]piperazin-1-yl]methanone; hydrochloride], the IC90 under setting [1] turned out to be 109 nM.
On to `COc1ccc(-c2cnc3c(Nc4ccc(C(=O)N5CCN(C(=O)[C@@H]6CC(F)(F)CN6)CC5)c(C)c4)nccn23)c(F)c1F` [Example 573, (S)-(4-(4-((3-(2,3-difluoro-4-methoxyphenyl)imidazo[1,2-a]pyrazin-8-yl)amino)-2-methylbenzoyl)piperazin-1-yl)(4,4-difluoropyrrolidin-2-yl)methanone hydrochloride], for which the IC90 under setting [2] is 310 nM.
Same read-out and setting: to `COc1ccc(-c2cnc3c(Nc4ccc(C(=O)N5CCC(C(=O)NCC(O)CN6CCNCC6)CC5)c(C)c4)nccn23)c(F)c1F` (centres unmarked) [Example 90, 1-(4-((3-(2,3-difluoro-4-methoxyphenyl)imidazo[1,2-a]pyrazin-8-yl)amino)-2-methylbenzoyl)-N-(2-hydroxy-3-(piperazin-1-yl)propyl)piperidine-4-carboxamide hydrochloride] belongs 116 nM; to `COc1ccc(-c2cnc3c(Nc4ccc(C(=O)N5CCC(C(=O)N6C[C@@H](O)[C@@H](O)[C@@H](O)C6)CC5)c(C)c4)nccn23)c(F)c1F` [Example 569, (1-(4-((3-(2,3-difluoro-4-methoxyphenyl)imidazo[1,2-a]pyrazin-8-yl)amino)-2-methylbenzoyl)piperidin-4-yl)((3R,4s,5S)-3,4,5-trihydroxypiperidin-1-yl)methanone], 205 nM.
On the same count and under the same terms, the same measure for `Cc1cc(Nc2nccn3c(-c4ccc(OCC#N)c(F)c4F)cnc23)ccc1C(=O)N1CCN(C(=O)[C@@H]2CCNC[C@@H]2O)CC1` [Example 188, 2-[2,3-difluoro-4-[8-[4-[4-[(3R,4R)-3-hydroxypiperidine-4-carbonyl]piperazine-1-carbonyl]-3-methyl-anilino]imidazo[1,2-a]pyrazin-3-yl]phenoxy] acetonitrile formate]: 51 nM.
